ChEMBL document CHEMBL3400084, “Synthesis and evaluation of tetrahydroindazole derivatives as sigma-2 receptor ligands” (Bioorg Med Chem, 2015)

Assays:
[1] = target: Sigma non-opioid intracellular receptor 1 (Cavia porcellus, UniProt Q60492); experiment: Displacement of (+)-[3H]pentazocine from sigma 1 receptor in guinea pig brain homogenate after 120 mins by beta counting; format: tissue-based
[2] = Displacement of [3H]-di-o-tolylguanidine from sigma 2 receptor in Sprague-Dawley rat liver membranes after 120 mins by beta counting in presence of (+)-pentazocine; format: cell membranes, Membrane
[3] = Selectivity ratio of Ki for sigma 1 receptor in guinea pig brain homogenate to Ki for sigma 2 receptor in Sprague-Dawley rat liver membranes; format: cell membranes

Sigma non-opioid intracellular receptor 1, sequence (Q60492 whole entry): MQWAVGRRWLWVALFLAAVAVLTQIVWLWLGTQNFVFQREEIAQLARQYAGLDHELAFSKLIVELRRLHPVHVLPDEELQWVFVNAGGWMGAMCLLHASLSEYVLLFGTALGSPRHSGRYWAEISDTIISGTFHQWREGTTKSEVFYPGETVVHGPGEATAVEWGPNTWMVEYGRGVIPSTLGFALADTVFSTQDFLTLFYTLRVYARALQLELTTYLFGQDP

SMILES | Ki [1] [nM] | Ki [2] [nM] | Ratio Ki [3]
Cc1nn(-c2ccc(C(N)=O)c(NC3CC4CCCC(C3)N4)c2)c2c1C(=O)CC(C)(C)C2 (centres undefined) | > 1000 | 46.6 | > 21
COc1cc2c(cc1OC)CN(c1cc(-n3nc(C)c4c3CC(C)(C)CC4=O)ccc1C(N)=O)CC2 | > 1000 | 18400 | –
COc1cc2c(cc1OC)CN(CCNc1cc(-n3nc(C)c4c3CC(C)(C)CC4=O)ccc1C(N)=O)CC2 | > 1000 | 820 | –
COc1cc2c(cc1OC)CN(CCCCCCNc1cc(-n3nc(C)c4c3CC(C)(C)CC4=O)ccc1C(N)=O)CC2 | > 1000 | 21500 | –
COc1cc2c(cc1OC)CN(CCCNc1cc(-n3nc(C)c4c3CC(C)(C)CC4=O)ccc1C(N)=O)CC2 | > 1000 | 89.8 | > 11
COc1cc2c(cc1OC)CN(CCCCCNc1cc(-n3nc(C)c4c3CC(C)(C)CC4=O)ccc1C(N)=O)CC2 | > 1000 | 74.5 | > 13
COc1cc2c(cc1OC)CN(CCCCNc1cc(-n3nc(C)c4c3CC(C)(C)CC4=O)ccc1C(N)=O)CC2 | > 1000 | 142 | > 7
Cc1ccccc1NC(=N)Nc1ccccc1C [DITOLYLGUANIDINE] | – | 19.4 | –
